Assay results published in patent publication US11034970B2, “Production of protein from hairy roots of a Brassicaceae plant utilizing rhizobium comprising rol genes” (UNIVERSITE DE PICARDIE JULES VERNE, priority 2015, dated 2021).
Values joined by “and” are separate entries in the source; they are usually repeats but may differ in a detail not shown here. Equal entries are not always repeated.

Tests used:
Type in all cases: cell-based, Brassica rapa
[1] = test system: hairy roots of the clone 2M1; test: Induction of lateral root emergences on hairy roots, morphology; conditions: 2,4-D 0.5 mg/l in B53 medium, during the following 7 days
Method: (§1) In order to modify the morphology of the hairy roots and prevent the development of the root hairs, roots of the clone 2M1 producing GFP were cultured in B53 liquid medium for two weeks. This culture medium was then removed and replaced with fresh B53 medium containing 2,4-dichlorophenoxyacetic acid (2,4-D), an auxin-type hormone, at 0.5 mg/l.
In order to characterize these conical structures or “lateral root emergences” developing on the roots after hormonal induction, longitudinal sections (FIG. 3) and cross sections (FIG. 4) were produced in the control hairy roots after culture for 2 weeks in B53 medium and in hairy roots having lateral root emergences after culture for 2 weeks in B53 medium with 2,4-D auxin added.
The tissues were fixed in 4% p-formaldehyde overnight at 4° C., dehydrated in baths of ethanol of increasing concentrations, then enclosed in LR White resin. Sections with a thickness of 0.5 to 1 μm were produced using a Leica RM2265 microtome, stained with toluidine blue and observed using a Nikon Eclipse 90i microscope. The images were obtained using a Nikon Digital Sight DS-5Mc device, in visible light or in fluorescence to locate the GFP.

[2] = test system: hairy roots of the clone 2M1; test: Test 3: GFP concentration in the culture medium after culture for 21 days (Petri dishes); conditions: 2,4-D 1 mg/l
Method: (§2) For the quantification of 6× His-EGFP, culture medium was diluted to 20× or 40× in a 50 mM tris buffer at pH 7.5. The fluorescence of the solution was measured using the BioRad VersaFluor™ fluorometer (excitation filter 485-495 nm; emission filter 505-515 nm). The calibration of the fluorometer was carried out using the commercially available recombinant 6× His-EGFP (BioVision) at a concentration of 10 mg/l.
Roots of the clone 2M1 were inoculated in 14 Petri dishes, each containing 5 ml of liquid B53 culture medium. They were cultured at 26° C. under stirring at 110 rpm for 17 days.
The medium was then changed in the Petri dishes as follows: • in seven Petri dishes, the medium was removed and replaced with fresh B53 culture medium with 2,4-D added at 1 mg/l (LRE 1 to 7) in order to induce the development of lateral root emergences in these dishes; • and in the other seven Petri dishes, the medium was removed and replaced with fresh B53 culture medium (Controls 1 to 7).
The roots were maintained at 26° C. under stirring at 110 rpm for 21 days.

[3] = test system: hairy roots of the clone LG5; test: Human gastric lipase activity in the liquid culture medium (4-methylumbelliferyl oleate substrate); conditions: 2,4-D 1 mg/l
Method: For this study, a subculture was carried out in six empty Erlenmeyer flasks, to which 1 g of biomass of the same mass of roots of the clone LG5 and 100 ml of liquid Gamborg B53 medium are added. The roots are cultured at 26° C. and under stirring at 110 rpm for two weeks.
In order to induce the development of lateral root emergences (LRE) in three Erlenmeyer flasks, this liquid medium is replaced with fresh B53 culture medium containing 2,4-dichlorophenoxyacetic acid (2,4-D) at 1 mg/l.
In the other three Erlenmeyer flasks having conventional hairy roots (HR), it is replaced with fresh B53 liquid culture medium, without 2,4-D.
After culture for two weeks at 26° C. with stirring at 110 rpm, a second change of medium was carried out in the flasks in an identical manner, in order to replace the culture medium with a fresh culture medium with +/−2,4-D at 1 mg/l.
The activity of the human gastric lipase is measured directly from the liquid culture media in the 6 flasks (14 days and 28 days after induction). The enzymatic activity is measured at 37° C. using 4-methylumbelliferyl oleate (0.1 mM) as substrate. The fluorescence of the 4-methylumbelliferone (MU), product of the enzyme reaction by the gastric lipase, is measured with a fluorometer (Excitation: 330 nm; Emission: 450 nm). This fluorescence is correlated to the human gastric lipase activity (FIG. 11).

[4] = test system: hairy roots of the clone 2M1; test: Test 1: quantification by fluorometry of GFP secreted in the culture medium (Petri dishes)
Method: as §1, §2
After culture of hairy roots of the clone 2M1 in B53 liquid medium for two weeks, this medium was replaced with fresh B53 medium containing 2,4-D auxin at 0.5 mg/l, in order to induce the development of lateral root emergences. The hairy roots of the clone 2M1 were thus cultured in Petri dishes containing 5 ml of B53 medium with 2,4-D added, at 23° C. and under stirring at 56 rpm.
The GFP secreted in the culture medium by the hairy roots having lateral root emergences, was quantified (10 repetitions) one and two weeks after the addition of 2,4-D auxin at 0.5 mg/l (Table 2).
Hairy roots of the clone 2M1 were cultured (9 repetitions) under the same conditions changing the B53 medium with fresh B53 medium but without the addition of auxin after culture for the first two weeks, in order to constitute control batches of hairy roots.

[5] = test system: hairy roots of the clone 2M1; test: Test 2: GFP secreted in the culture medium, Erlenmeyer flasks, two renewals of medium; conditions: 2,4-D 1 mg/l, first change of medium
Method: as §2
The clone 2M1 was inoculated at t0 into 5 Erlenmeyer flasks at a rate of 2 g of fresh roots in 100 ml of B53 medium. After culture at 26° C. with a stirrer at 110 rpm for 15 days, the roots have reached a mass of 24.4 g+/−3.90.
A first change of medium was then carried out in each of the flasks as follows; • in two flasks, the B53 medium was replaced with fresh B53 medium in order to carry out two repetitions for the control hairy roots; • in three flasks, the B53 medium was replaced with B53 medium with 2,4-D added at 1 mg/l in order to carry out three repetitions for inducing the development of lateral root emergences;
The GFP secreted in the culture medium was quantified 7 to 14 days after this first change of medium.
A second change of medium was then carried out in these same flasks, in an identical manner:
in the two flasks of control hairy roots. the B53 medium was replaced with fresh B53 medium; […]

[6] = lateral root emergences (LRE), 37° C., 3 flasks

## O=C(O)COc1ccc(Cl)cc1Cl [2,4-D, 2,4-dichlorophenoxyacetic acid]
[1]
  morphology of the hairy roots after hormonal induction: Numerous conical structures called “lateral root emergences” (LRE) then developed on the hairy roots
[2]; 7 Petri dishes, roots with lateral root emergences
  concentration of GFP in the medium after 21 days: 597 mg/L
[2]; after 21 days
  concentration of GFP in the medium, times greater than control hairy roots: 4.3
[3]; LRE versus HR
  activity of the human gastric lipase, times greater than conventional hairy roots (HR): approximately 3
[3]; [6]
  activity of the human gastric lipase in the culture medium at 14 days: 16 ± 0.6 pmol/min
  activity of the human gastric lipase in the culture medium at 28 days: 45 ± 0.3 pmol/min
[4]; 2,4-D 0.5 mg/l versus medium without 2,4-D
  GFP in the culture medium versus control hairy roots (Student's test): significant difference
[4]; average of 10 Petri dishes (n=10), 2,4-D 0.5 mg/l
  GFP in the culture medium, 2 weeks after B53 + 2,4-D, average: 164 ± 10.3 mg/L and 164 mg/L
[4]; average of 10 Petri dishes, 2,4-D 0.5 mg/l
  GFP in the culture medium, 1 week after B53 + 2,4-D, average: 52 mg/L
[5]
  secretion of GFP versus control cultures after treatment for 14 days: doubled
